The text below walks through data of US20250332173A1, “COMPOUNDS AND METHODS FOR MODULATING NUCLEIC ACID SPLICING” (REMIX THERAPEUTICS INC., priority 2021, published 2025).

Molecules are shown by their SMILES. Where two headings read alike, the source gives them in different places.

One test concerns HTT mRNA. In words: RT-qPCR splicing assay, HTT canonical junction (CJ) and alternative junction (AJ) mRNA. Type of test: cell-based, human. The note with it: Homo sapiens; for AC50: increase in HTT alternative junction (AJ) mRNA, read-out: HTT AJ AC50. As for the experimental part:
(§1) The expression of a target mRNA was measured by detecting the formation of an exon-exon junction in the canonical transcript (CJ). A compound mediated exon-inclusion event was detected by observing an increase in formation of a new junction with an alternative exon (AJ). Real-time qPCR assays were used to detect these splicing switches and interrogate the potency of various compounds towards different target genes. A high-throughput real time quantitative PCR (RT-qPCR) assay was developed to measure these two isoforms of the mRNA (CJ and AJ) for exemplary genes, such as HTT, SMN2, and MYB, together with a control housekeeping gene, GAPDH or GUSB or PPIA, used for normalization. Briefly, the A673 or K562 cell line was treated with various compounds described herein (e.g., compounds of Formula (I)). After treatment, the levels of the HTT, MYB, or SMN2 mRNA targets were determined from each sample of cell lysate by cDNA synthesis followed by qPCR.
(§2) • Cells-to-CT 1-step kit: ThermoFisher A25602, Cells-to-CT lysis reagent: ThermoFisher 4391851C, TaqMan™ Fast Virus 1-Step Master Mix: ThermoFisher 4444436 • GAPDH: VIC-PL, ThermoFisher 4326317E (Assay: Hs99999905_m1)—used for K562/suspension cell lines • GUSB: VIC-PL, ThermoFisher 4326320E (Assay: Hs99999908_m1)—used for K562/suspension cell lines • PPIA: VIC-PL, ThermoFisher 4326316E (Assay: Hs99999904_m1)—used for A673/adherent cell lines
(§3) The A673 cell line was cultured in DMEM with 10% FBS. Cells were diluted with full growth media and plated in a 96-well plate (15,000 cells in 100 ul media per well). The plate was incubated at 37° C. with 5% CO2 for 24 hours to allow cells to adhere. An 11-point 3-fold serial dilution of the compounds was made in DMSO then diluted in media in an intermediate plate. Compounds were transferred from the intermediate plate to the cell plate with the top dose at a final concentration of 10 uM in the well. Final DMSO concentration was kept at or below 0.25%. The cell plate was returned to the incubator at 37° C. with 5% CO2 for an additional 24 hours.
(§4) The K562 cell line was cultured in IMDM with 10% FBS. For K562, cells were diluted with full growth media and plated in either a 96-well plate (50,000 cells in 50 uL media per well) or a 384-well plate (8,000-40,000 cells in 45 uL media per well). An 11-point 3-fold serial dilution of the compounds were made in DMSO then diluted in media in an intermediate plate. Compound was transferred from the intermediate plate to the cell plate with the top dose at a final concentration of 10 uM in the well. Final DMSO concentration was kept at or below 0.25%. Final volume was 100 uL for 96-well plate and 50 uL for 384-well plate. The cell plate was then placed in an incubator at 37° C. with 5% CO2 for 24 hours.
(§5) The cells were then gently washed with 50 uL-100 uL cold PBS before proceeding to addition of lysis buffer. 30 uL-50 uL of room temperature lysis buffer with DNAse I (and optionally RNAsin) was added to each well. Cells were shaken/mixed thoroughly at room temperature for 5-10 minutes for lysis to take place and then 3 uL-5 uL of room temperature stop solution was added and wells were shaken/mixed again. After 2-5 minutes, the cell lysate plate was transferred to ice for RT-qPCR reaction setup. The lysates could also be frozen at −80° C. for later use.
(§6) In some cases, a direct lysis buffer was used. An appropriate volume of 3× lysis buffer (10 mM Tris, 150 mM NaCl, 1.5%-2.5% Igepal and 0.1-1 U/uL RNAsin, pH 7.4) was directly added to either K562 or A673 cells in media and mixed by pipetting 3 times. The plates were then incubated at room temperature with shaking/rocking for 20-50 minutes to allow for lysis to take place. After this time, the cell lysate plate was transferred to ice to set up for the RT-qPCR reactions. The lysates could also be frozen at −80° C. for later use.
For orientation: In qPCR the cycle at which signal appears reflects the starting amount.

The test system of a further test is Target C. In words: RT-qPCR splicing assay panel, Target C canonical junction (CJ) mRNA. The format is cell-based, human. The note with it: Homo sapiens. As for the experimental part:
as §1, §3, §4, §5, §6
To set up 10 uL RT-qPCR reactions, cell lysates were transferred to 384-well qPCR plates containing the master mix according to the table below. The plates were sealed, gently vortexed, and spun down before the run. The volumes were adjusted accordingly in some instances where the reaction was carried in 20 uL. The table below summarizes the components of the RT-qPCR reactions:
The RT-qPCR reaction was performed using a QuantStudio (ThermoFisher) under the following fast cycling conditions.

The test system of a further test is MYB mRNA. The test is described as follows: RT-qPCR splicing assay, MYB canonical junction (CJ) and alternative junction (AJ) mRNA. The format is cell-based, human. The note with it: Homo sapiens; for AC50: increase in MYB alternative junction (AJ) mRNA, read-out: MYB AJ AC50. On the procedure:
as §1, §2, §3, §4, §5, §6

Test [1] has as its system K562 (human chronic myelogenous leukemia) cells. In words: Cell Titer Glo 2.0 cell viability assay. Type of test: cell-based. The settings on record: Homo sapiens, K562, 72 h, K562 cells, 72 hours, Cell Titer Glo 2.0; read-out: K562 GI50. (Cellular ATP, detected with luciferase, serves as a proxy for viable cell number.)
Where [2] appears, read: decrease in HTT canonical junction (CJ) mRNA, RT-qPCR, read-out: HTT CJ IC50.
The mark [3] stands for this setting: Table 5 panel, canonical junction qPCR, compound concentration having 50% response in CJ decrease, read-out: HTT IC50 (decrease in CJ mRNA levels).
The mark [4] stands for this setting: Table 5 panel, canonical junction qPCR, compound concentration having 50% response in CJ decrease, read-out: Target C IC50 (decrease in CJ mRNA levels).
Setting [5] is: canonical junction qPCR panel, Table 5, read-out: HTT (decrease in CJ mRNA levels, IC50).
The mark [6] stands for this setting: canonical junction qPCR panel, Table 5, read-out: Target C (decrease in CJ mRNA levels, IC50).
Where [7] appears, read: canonical junction qPCR panel, Table 5, read-out: MYB (decrease in CJ mRNA levels, IC50).
[8] abbreviates: decrease in MYB canonical junction (CJ) mRNA, RT-qPCR, read-out: MYB CJ IC50.

What is called IC50 is the midpoint of a concentration-inhibition curve. For orientation: AC50 means the concentration at which the activity in the assay is half-maximal. With `Cc1cn2cc(-c3ccc4c(=O)n(C5CCNCC5)ncc4c3)nc2c(C)n1` [Compound 258], in the test on HTT mRNA (setting [2]), the IC50 was above 10000 nM. For the same molecule, the AC50 with HTT mRNA (RT-qPCR) lay in the range of 1000 to 10000 nM.

Regarding `Cc1cn2nc(-c3ccc4c(=O)n([C@H]5CCN[C@H](C)C5)ncc4c3)cc(C)c2n1` [Compound 273], the values for the IC50 in the test with HTT mRNA (setting [2]), in the test on HTT mRNA (setting [3]) and in the test on Target C (setting [4]) were 100 to 1000 nM, below 100 nM and 100 to 1000 nM, respectively. In addition, in the test on HTT mRNA (RT-qPCR), the AC50 is below 100 nM.

Turning to `Cc1cn2nc(-c3ccc4c(=O)n(C5CCOCC5)ncc4c3)cc(C)c2n1` [Compound 275], the IC50 in the test with HTT mRNA (setting [3]) and in the test on Target C (setting [4]) was above 10000 nM each time.

As to `CC[C@@H]1C[C@@H](n2ncc3cc(-c4cc(C)c5nc(C)cn5n4)ccc3c2=O)CCN1` [Compound 305], the IC50 in the test on HTT mRNA (setting [2]) was in the range of 1000 to 10000 nM; in the test on HTT mRNA (setting [3]), 100 to 1000 nM; in the test with Target C (setting [4]), 100 to 1000 nM. Besides, the AC50 in the test with HTT mRNA (RT-qPCR) fell in the range of 100 to 1000 nM.

The term GI50 denotes the concentration giving 50% growth inhibition. With `Cc1cn2nc(-c3ccc4c(=O)n([C@@H]5CCNC6(CC6)C5)ccc4n3)cc(C)c2n1` [Compound 1505, 6-[(7R)-4-azaspiro[2.5]octan-7-yl]-2-(2,8-dimethylimidazo[1,2-b]pyridazin-6-yl)-1,6-naphthyridin-5-one], the IC50 in the test on HTT mRNA (setting [2]), in the test with HTT mRNA (setting [5]), in the test with Target C (setting [6]), in the test on MYB mRNA (setting [7]) and in the test on MYB mRNA (setting [8]) was 100 to 1000 nM each time. Further, the half-maximal activity concentration (AC50) in the test on HTT mRNA (RT-qPCR) and in the test with MYB mRNA (RT-qPCR) was 100 to 1000 nM throughout. In addition, in test [1], the GI50 is 1000 to 10000 nM.

Regarding `Cc1cn2nc(-c3ccc4c(=O)n([C@H]5CCNC6(CC6)C5)ccc4n3)cc(C)c2n1` [Compound 1506, 6-[(7S)-4-azaspiro[2.5]octan-7-yl]-2-(2,8-dimethylimidazo[1,2-b]pyridazin-6-yl)-1,6-naphthyridin-5-one], the IC50 in the test on HTT mRNA (setting [2]) is below 100 nM; in the test with HTT mRNA (setting [5]), below 100 nM; in the test with Target C (setting [6]), 100 to 1000 nM; with MYB mRNA (setting [7]) it was 100 to 1000 nM; in the test on MYB mRNA (setting [8]), below 100 nM. The AC50 is below 100 nM with HTT mRNA (RT-qPCR) and 100 to 1000 nM in the test on MYB mRNA (RT-qPCR). Moreover, the GI50 in test [1] lay within 100 to 1000 nM.

As to `C[C@H]1C[C@@H](n2ccc3nc(-c4cc(F)c5nn(C)cc5c4)ccc3c2=O)CCN1` [Compound 1507], the IC50 in the test on HTT mRNA (setting [2]) is 100 to 1000 nM; with HTT mRNA (setting [5]) it was 100 to 1000 nM; with Target C (setting [6]), 1000 to 10000 nM; in the test on MYB mRNA (setting [7]), 100 to 1000 nM; in the test on MYB mRNA (setting [8]) it was 100 to 1000 nM. The AC50 with HTT mRNA (RT-qPCR) and in the test on MYB mRNA (RT-qPCR) was 100 to 1000 nM throughout. Besides, the GI50 in test [1] lay in the range of 100 to 1000 nM.

For the molecule `Cc1c(O)c(-c2ccc3c(=O)n([C@H]4CCNC5(CC5)C4)ccc3n2)cc2cn(C)nc12` [Compound 1508, 6-[(7S)-4-azaspiro[2.5]octan-7-yl]-2-(6-hydroxy-2,7-dimethyl-indazol-5-yl)-1,6-naphthyridin-5-one], the IC50 in the test on HTT mRNA (setting [2]), in the test with HTT mRNA (setting [5]), in the test with Target C (setting [6]), with MYB mRNA (setting [7]) and with MYB mRNA (setting [8]) was below 100 nM in each case. Also, the AC50 with HTT mRNA (RT-qPCR) and in the test on MYB mRNA (RT-qPCR) was below 100 nM in each case. In addition, in test [1], the GI50 is below 100 nM.

On to `Cc1c(O)c(-c2ccc3c(=O)n([C@@H]4CCNC5(CC5)C4)ccc3n2)cc2cn(C)nc12` [Compound 1509, 6-[(7R)-4-azaspiro[2.5]octan-7-yl]-2-(6-hydroxy-2,7-dimethyl-indazol-5-yl)-1,6-naphthyridin-5-one], for which the IC50 is 100 to 1000 nM in the test with HTT mRNA (setting [2]); 100 to 1000 nM in the test on HTT mRNA (setting [5]); 100 to 1000 nM in the test with Target C (setting [6]); below 100 nM in the test with MYB mRNA (setting [7]); 100 to 1000 nM with MYB mRNA (setting [8]). Moreover, the AC50 in the test on HTT mRNA (RT-qPCR) is 100 to 1000 nM; in the test with MYB mRNA (RT-qPCR) it was below 100 nM. In addition, the GI50 in test [1] is 100 to 1000 nM.

In the case of `Cc1cn2cc(-c3ccc4c(=O)n([C@@H]5CCNC6(CC6)C5)ccc4n3)cc(F)c2n1` [Compound 1510], the IC50 in the test on HTT mRNA (setting [2]) lay in the range of 1000 to 10000 nM; with HTT mRNA (setting [5]), 100 to 1000 nM; with Target C (setting [6]) it was 1000 to 10000 nM; in the test with MYB mRNA (setting [7]), 100 to 1000 nM; in the test on MYB mRNA (setting [8]), 1000 to 10000 nM. Also, the AC50 in the test on HTT mRNA (RT-qPCR) and in the test with MYB mRNA (RT-qPCR) was 100 to 1000 nM each time. Also, the GI50 in test [1] fell in the range of 100 to 1000 nM.
